Reference: ChEMBL document CHEMBL1142255, “Potent pyrrolidine- and piperidine-based BACE-1 inhibitors” (Bioorg Med Chem Lett, 2008)
pIC50: −log10 of the molar value.

Experiments:
[1] = target: T1, Beta-secretase 1 (Homo sapiens, UniProt P56817)
[2] = target: T1, Beta-secretase 1; remark: listed apart in the source

T1 sequence (P56817 whole entry): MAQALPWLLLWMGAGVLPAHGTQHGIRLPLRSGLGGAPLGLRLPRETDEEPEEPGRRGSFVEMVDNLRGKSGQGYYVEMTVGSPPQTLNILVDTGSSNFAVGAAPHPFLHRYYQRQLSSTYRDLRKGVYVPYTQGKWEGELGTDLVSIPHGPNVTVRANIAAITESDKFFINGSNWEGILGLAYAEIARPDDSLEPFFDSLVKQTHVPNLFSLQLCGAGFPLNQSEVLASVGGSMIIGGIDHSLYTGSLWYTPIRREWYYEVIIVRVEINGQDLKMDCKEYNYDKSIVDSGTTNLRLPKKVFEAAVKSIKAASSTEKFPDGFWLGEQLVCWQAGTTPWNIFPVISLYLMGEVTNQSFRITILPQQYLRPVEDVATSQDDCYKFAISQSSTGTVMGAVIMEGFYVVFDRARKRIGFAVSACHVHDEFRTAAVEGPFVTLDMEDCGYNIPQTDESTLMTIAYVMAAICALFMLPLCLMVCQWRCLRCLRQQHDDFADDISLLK

SMILES | pIC50 [1] | pIC50 [2]
CCCN(CCC)C(=O)c1cc(C)cc(C(=O)N[C@@H](Cc2cc(F)cc(F)c2)[C@H](O)[C@H]2CCN2)c1 | 5.55 | 6.11
CCCN(CCC)C(=O)c1cc(C)cc(C(=O)N[C@@H](Cc2cc(F)cc(F)c2)[C@H](O)[C@H]2C[C@@H](OCC3CC3)CCN2)c1 | 6.92 | 8.22
CCCN(CCC)C(=O)c1cc(C)cc(C(=O)N[C@@H](Cc2cc(F)cc(F)c2)[C@H](O)[C@H]2C[C@@H](Cc3cccc(OC)c3)CCN2)c1 |  | 6.48
CCCN(CCC)C(=O)c1cc(C)cc(C(=O)N[C@@H](Cc2cc(F)cc(F)c2)[C@H](O)[C@H]2C[C@@H](OC(C)=O)CCN2)c1 | 5.52 | 5.70
CCC[C@H]1CCN[C@@H]([C@@H](O)[C@H](Cc2cc(F)cc(F)c2)NC(=O)c2cc(C)cc(C(=O)N(CCC)CCC)c2)C1 | 5.92 | 7.15
CCCN(CCC)C(=O)c1cc(C)cc(C(=O)N[C@@H](Cc2cc(F)cc(F)c2)[C@H](O)[C@H]2C[C@@H](OC(C)C)CCN2)c1 | 6.07 | 6.92
CCCN(CCC)C(=O)c1cc(C)cc(C(=O)N[C@@H](Cc2cc(F)cc(F)c2)[C@H](O)[C@H]2C[C@@H](OCCOC)CCN2)c1 | 6.96 | 8.40
CCCCO[C@H]1CCN[C@@H]([C@@H](O)[C@H](Cc2cc(F)cc(F)c2)NC(=O)c2cc(C)cc(C(=O)N(CCC)CCC)c2)C1 | 6.80 | 8.15
CCCN(CCC)C(=O)c1cc(C)cc(C(=O)N[C@@H](Cc2cc(F)cc(F)c2)[C@H](O)[C@H]2C[C@@H](OCC3CCCCC3)CCN2)c1 | 6.25 | 7.92
CCCN(CCC)C(=O)c1cc(C)cc(C(=O)N[C@@H](Cc2cc(F)cc(F)c2)[C@H](O)[C@H]2C[C@@H](OC)CN2)c1 | 6.11 | 6.73
CCCN(CCC)C(=O)c1cc(C)cc(C(=O)N[C@@H](Cc2cc(F)cc(F)c2)[C@H](O)[C@H]2CCCN2)c1 | 6.48 | 7.19
CCCN(CCC)C(=O)c1cc(C)cc(C(=O)N[C@@H](Cc2cc(F)cc(F)c2)[C@H](O)[C@H]2C[C@@H](OCCN(C)C)CCN2)c1 | 6.32 | 7.59
CCCN(CCC)C(=O)c1cc(C)cc(C(=O)N[C@@H](Cc2cc(F)cc(F)c2)[C@H](O)[C@H]2C[C@@H](Cc3ccccc3OC)CCN2)c1 |  | 5.87
CCCN(CCC)C(=O)c1cc(C)cc(C(=O)N[C@@H](Cc2cc(F)cc(F)c2)[C@H](O)[C@H]2C[C@@H](C3CCCCC3)CCN2)c1 | 5.38 | 6.21
CCCN(CCC)C(=O)c1cc(C)cc(C(=O)N[C@@H](Cc2cc(F)cc(F)c2)[C@H](O)[C@H]2C[C@@H](O)CN2)c1 | 5.84 | 7.05
CCCN(CCC)C(=O)c1cc(C)cc(C(=O)N[C@@H](Cc2cc(F)cc(F)c2)[C@H](O)[C@H]2C[C@@H](CC3CCCCC3)CCN2)c1 | 5.70 | 6.20
CCCN(CCC)C(=O)c1cc(C)cc(C(=O)N[C@@H](Cc2cc(F)cc(F)c2)[C@H](O)[C@H]2C[C@@H](Cc3ccc(OC)cc3)CCN2)c1 | 5.70 | 6.36
CCCN(CCC)C(=O)c1cc(C)cc(C(=O)N[C@@H](Cc2cc(F)cc(F)c2)[C@H](O)[C@H]2C[C@@H](CCc3ccccc3)CCN2)c1 | 5.73 | 6.72
